According to ChEMBL document CHEMBL4004878, “Design, synthesis and structure-bactericidal activity relationships of novel 9-oxime ketolides and reductive epimers of acylides” (2017):
≈ marks a conversion by molar mass, not a printed value.

Legend:
Assay type in all cases: functional
Haemophilus influenzae [1] = assay: Bactericidal activity against azithromycin-susceptible Haemophilus influenzae ATCC 49247 incubated for 20 to 24 hrs followed by sub-culturing for 24 hrs in absence of compound
Staphylococcus aureus [2] = assay: Bacteriostatic activity against methicillin-resistant Staphylococcus aureus PU32 expressing inducible ermA after 20 hrs by two-fold microbroth dilution method; conditions: PU32, 20 h
Haemophilus influenzae [3] = assay: Bacteriostatic activity against azithromycin-susceptible/ampicillin-resistant Haemophilus influenzae 11P307 after 20 to 24 hrs by two-fold microbroth dilution method
Staphylococcus aureus [4] = assay: Bacteriostatic activity against methicillin-resistant Staphylococcus aureus PU20 expressing constitutive ermC after 20 hrs by two-fold microbroth dilution method; conditions: PU20, 20 h
Staphylococcus aureus [5] = assay: Ratio of MBC to MIC against methicillin-resistant Staphylococcus aureus PU32 expressing inducible ermA
Streptococcus pyogenes [6] = assay: Ratio of MBC to MIC for Streptococcus pyogenes 12-207 expressing mef
Staphylococcus aureus [7] = assay: Ratio of MBC to MIC for methicillin-resistant Staphylococcus aureus PU20 expressing constitutive ermC
Staphylococcus aureus [8] = assay: Bactericidal activity against methicillin-resistant Staphylococcus aureus PU20 expressing constitutive ermC incubated for 20 hrs followed by sub-culturing for 24 hrs in absence of compound
Streptococcus pyogenes [9] = assay: Bacteriostatic activity against Streptococcus pyogenes 12-207 expressing mef after 20 to 24 hrs by two-fold microbroth dilution method
Streptococcus pneumoniae [10] = assay: Bacteriostatic activity against […] Streptococcus pneumoniae ATCC 49619 after 20 to 24 hrs by two-fold microbroth dilution method
Streptococcus pyogenes [11] = assay: Bactericidal activity against Streptococcus pyogenes 12-207 expressing mef incubated for 20 to 24 hrs followed by sub-culturing for 24 hrs in absence of compound
Streptococcus pneumoniae [12] = assay: Bacteriostatic activity against penicillin-susceptible Streptococcus pneumoniae PU09 after 20 to 24 hrs by two-fold microbroth dilution method
Haemophilus influenzae [13] = assay: Ratio of MBC to MIC for azithromycin susceptible/ampicillin-resistant Haemophilus influenzae 11P307
Streptococcus pneumoniae [14] = assay: Bactericidal activity against […] Streptococcus pneumoniae ATCC 49619 incubated for 20 to 24 hrs followed by sub-culturing for 24 hrs in absence of compound
Streptococcus pyogenes [15] = assay: Ratio of MBC to MIC for Streptococcus pyogenes 01-968 expressing inducible ermA
Staphylococcus aureus [16] = assay: Bactericidal activity against methicillin-resistant Staphylococcus aureus PU32 expressing inducible ermA incubated for 20 hrs followed by sub-culturing for 24 hrs in absence of compound
Streptococcus pneumoniae [17] = assay: Ratio of MBC to MIC for […] Streptococcus pneumoniae ATCC 49619
Streptococcus pyogenes [18] = assay: Bacteriostatic activity against Streptococcus pyogenes 01-968 expressing inducible ermA after 20 to 24 hrs by two-fold microbroth dilution method
Haemophilus influenzae [19] = assay: Ratio of MBC to MIC against azithromycin-susceptible Haemophilus influenzae ATCC 49247
Moraxella catarrhalis [20] = assay: Ratio of MBC to MIC against erythromycin-susceptible Moraxella catarrhalis 11B366
Streptococcus pyogenes [21] = assay: Bactericidal activity against Streptococcus pyogenes 01-968 expressing inducible ermA incubated for 20 to 24 hrs followed by sub-culturing for 24 hrs in absence of compound
Streptococcus pneumoniae [22] = assay: Bactericidal activity against penicillin-susceptible Streptococcus pneumoniae PU09 incubated for 20 to 24 hrs followed by sub-culturing for 24 hrs in absence of compound
Streptococcus pneumoniae [23] = assay: Ratio of MBC to MIC for penicillin-susceptible Streptococcus pneumoniae PU09
Haemophilus influenzae [24] = assay: Bacteriostatic activity against azithromycin-susceptible Haemophilus influenzae ATCC 49247 after 20 to 24 hrs by two-fold microbroth dilution method
Moraxella catarrhalis [25] = assay: Bacteriostatic activity against erythromycin-susceptible Moraxella catarrhalis 11B366 after 20 hrs by two-fold microbroth dilution method; conditions: 11B366, 20 h
Haemophilus influenzae [26] = assay: Bactericidal activity against azithromycin susceptible/ampicillin-resistant Haemophilus influenzae 11P307 incubated for 20 to 24 hrs followed by sub-culturing for 24 hrs in absence of compound
Moraxella catarrhalis [27] = assay: Bactericidal activity against erythromycin-susceptible Moraxella catarrhalis 11B366 incubated for 20 hrs followed by sub-culturing for 24 hrs in absence of compound
Moraxella catarrhalis [28] = assay: Ratio of MBC to MIC against erythromycin-susceptible Moraxella catarrhalis 13L332
Moraxella catarrhalis [29] = assay: Bacteriostatic activity against erythromycin-susceptible Moraxella catarrhalis 13L332 after 20 hrs by two-fold microbroth dilution method; conditions: 13L332, 20 h
Moraxella catarrhalis [30] = assay: Bactericidal activity against erythromycin-susceptible Moraxella catarrhalis 13L332 incubated for 20 hrs followed by sub-culturing for 24 hrs in absence of compound

Compound | MBC (Haemophilus influenzae [1]) [µg/mL] | MIC (Staphylococcus aureus [2]) [µg/mL] | MIC (Haemophilus influenzae [3]) [µg/mL] | MIC (Staphylococcus aureus [4]) [µg/mL] | Ratio (Staphylococcus aureus [5]) | Ratio (Streptococcus pyogenes [6]) | MBC (Staphylococcus aureus [8]) [µg/mL] | MIC (Streptococcus pneumoniae [10]) [µg/mL] | MIC (Streptococcus pneumoniae [12]) [µg/mL] | Ratio (Haemophilus influenzae [13]) | MBC (Streptococcus pneumoniae [14]) [µg/mL] | Ratio (Streptococcus pyogenes [15]) | MBC (Staphylococcus aureus [16]) [µg/mL] | MIC (Streptococcus pyogenes [18]) [µg/mL] | Ratio (Haemophilus influenzae [19]) | MBC (Streptococcus pyogenes [21]) [µg/mL] | MBC (Streptococcus pneumoniae [22]) [µg/mL] | Ratio (Streptococcus pneumoniae [23]) | MIC (Haemophilus influenzae [24]) [µg/mL] | MBC (Haemophilus influenzae [26]) [µg/mL] | other results
CC[C@H]1OC(=O)[C@H](C)C(=O)[C@H](C)[C@@H](O[C@@H]2O[C@H](C)C[C@H](N(C)C)[C@H]2O)[C@](C)(OC)C[C@@H](C)/C(=N\OC/C=C/c2cnc3ccccc3c2)[C@H](C)[C@H]2OC(=O)O[C@@]21C | > 256 | 1 (≈ 1.26 µM) | 8 to 32 (≈ 10.1 to 40.2 µM) | 32 (≈ 40.2 µM) | >8 | >8 | 32 (≈ 40.2 µM) | ≤ 0.008 | 0.25 (≈ 0.314 µM) | >=4 - 8 | 0.031 (≈ 0.0389 µM) | >8 | > 8 | 0.062 (≈ 0.0779 µM) | >4 | > 0.5 | 0.5 (≈ 0.628 µM) | 2 | 64 (≈ 80.4 µM) | 64 to 128 (≈ 80.4 to 161 µM) | Ratio (Staphylococcus aureus [7]): 1; MIC (Streptococcus pyogenes [9]): 0.016 µg/mL (≈ 0.0201 µM); MBC (Streptococcus pyogenes [11]): > 0.125 µg/mL; Ratio (Streptococcus pneumoniae [17]): >=4; Ratio (Moraxella catarrhalis [20]): 1; MIC (Moraxella catarrhalis [25]): 2 µg/mL (≈ 2.51 µM); MBC (Moraxella catarrhalis [27]): 2 µg/mL (≈ 2.51 µM)
CC[C@H]1OC(=O)[C@@](C)(F)C(=O)[C@H](C)[C@@H](O[C@@H]2O[C@H](C)C[C@H](N(C)C)[C@H]2O)[C@](C)(OC)C[C@@H](C)/C(=N\OC/C=C/c2cncc(C(N)=O)c2)[C@H](C)[C@H]2OC(=O)O[C@@]21C | 32 (≈ 39.7 µM) | 1 (≈ 1.24 µM) | 16 (≈ 19.8 µM) | > 256 | 8 |  | > 256 | 0.062 (≈ 0.0768 µM) | 0.25 (≈ 0.31 µM) | 1 | 0.125 (≈ 0.155 µM) | >8 | 8 (≈ 9.91 µM) | 0.062 (≈ 0.0768 µM) | 2 | > 0.5 | 0.5 (≈ 0.62 µM) | 2 | 16 (≈ 19.8 µM) | 16 (≈ 19.8 µM) | Ratio (Moraxella catarrhalis [28]): >8; MIC (Moraxella catarrhalis [29]): 0.062 µg/mL (≈ 0.0768 µM); MBC (Moraxella catarrhalis [30]): > 0.5 µg/mL
CC[C@H]1OC(=O)[C@@](C)(F)C(=O)[C@H](C)[C@@H](O[C@@H]2O[C@H](C)C[C@H](N(C)C)[C@H]2O)[C@](C)(OC)C[C@@H](C)/C(=N\OC/C=C/c2cnc3ccccc3c2)[C@H](C)[C@H]2OC(=O)O[C@@]21C |  | 2 (≈ 2.46 µM) | 8 (≈ 9.83 µM) | 64 (≈ 78.6 µM) | >8 | >8 | 256 (≈ 315 µM) | ≤ 0.008 | 0.5 (≈ 0.614 µM) | >8 | 0.062 (≈ 0.0762 µM) | 8 | > 16 | 0.25 (≈ 0.307 µM) |  | 2 (≈ 2.46 µM) | 1 (≈ 1.23 µM) | 2 |  | > 64 | Ratio (Staphylococcus aureus [7]): 4; MIC (Streptococcus pyogenes [9]): 0.062 µg/mL (≈ 0.0762 µM); MBC (Streptococcus pyogenes [11]): > 0.5 µg/mL; Ratio (Streptococcus pneumoniae [17]): >=8; Ratio (Moraxella catarrhalis [20]): 1; MIC (Moraxella catarrhalis [25]): 2 µg/mL (≈ 2.46 µM); MBC (Moraxella catarrhalis [27]): 2 µg/mL (≈ 2.46 µM)
CC[C@H]1OC(=O)[C@@](C)(F)C(=O)[C@H](C)[C@@H](O[C@@H]2O[C@H](C)C[C@H](N(C)C)[C@H]2O)[C@](C)(OC)C[C@@H](C)/C(=N\OC/C=C/c2cncc(N)c2)[C@H](C)[C@H]2OC(=O)O[C@@]21C | 32 (≈ 41.1 µM) | 0.5 (≈ 0.642 µM) | 16 (≈ 20.5 µM) | > 256 | >8 |  | > 256 | 0.125 (≈ 0.16 µM) | 0.5 (≈ 0.642 µM) | 2 | 0.25 (≈ 0.321 µM) | >8 | > 4 | 0.062 (≈ 0.0796 µM) | 1 | > 0.5 | 1 (≈ 1.28 µM) | 2 | 32 (≈ 41.1 µM) | 32 (≈ 41.1 µM) | Ratio (Moraxella catarrhalis [28]): >8; MIC (Moraxella catarrhalis [29]): 0.031 µg/mL (≈ 0.0398 µM); MBC (Moraxella catarrhalis [30]): > 0.25 µg/mL
CC[C@H]1OC(=O)[C@H](C)[C@@H](O[C@H]2C[C@@](C)(OC)[C@@H](O)[C@H](C)O2)[C@H](C)[C@@H](O[C@@H]2O[C@H](C)C[C@H](N(C)C)[C@H]2O)[C@](C)(OC)C[C@@H](C)C(=O)[C@H](C)[C@@H](O)[C@]1(C)O [CLARITHROMYCIN] | 32 (≈ 42.8 µM) | 8 to 32 (≈ 10.7 to 42.8 µM) | 1 to 8 (≈ 1.34 to 10.7 µM) | > 256 | >2 - 8 | 2 | > 256 | 0.031 to 0.062 (≈ 0.0414 to 0.0829 µM) | 4 (≈ 5.35 µM) | 2 - 8 | 0.062 to 0.125 (≈ 0.0829 to 0.167 µM) | >8 | 16 to 256 (≈ 21.4 to 342 µM) | 1 (≈ 1.34 µM) | 2 | > 8 | 8 (≈ 10.7 µM) | 2 | 16 (≈ 21.4 µM) | 8 to 16 (≈ 10.7 to 21.4 µM) | Ratio (Moraxella catarrhalis [28]): 4; MIC (Streptococcus pyogenes [9]): 16 µg/mL (≈ 21.4 µM); MIC (Moraxella catarrhalis [29]): 0.031 µg/mL (≈ 0.0414 µM); MBC (Moraxella catarrhalis [30]): 0.125 µg/mL (≈ 0.167 µM); MBC (Streptococcus pyogenes [11]): 32 µg/mL (≈ 42.8 µM); Ratio (Moraxella catarrhalis [20]): 2; MIC (Moraxella catarrhalis [25]): 0.125 µg/mL (≈ 0.167 µM); MBC (Moraxella catarrhalis [27]): 0.25 µg/mL (≈ 0.334 µM)
CC[C@H]1OC(=O)[C@H](C)C(=O)[C@H](C)[C@@H](O[C@@H]2O[C@H](C)C[C@H](N(C)C)[C@H]2O)[C@](C)(OC)C[C@@H](C)C(=O)[C@H](C)[C@H]2N(CCCCn3cnc(-c4cccnc4)c3)C(=O)O[C@]12C [TELITHROMYCIN] | 8 (≈ 9.85 µM) | 0.125 to 0.25 (≈ 0.154 to 0.308 µM) | 1 to 4 (≈ 1.23 to 4.93 µM) | > 256 | >8 | 2 | > 256 | 0.016 to 0.031 (≈ 0.0197 to 0.0382 µM) | 0.25 (≈ 0.308 µM) | 1 - 4 | 0.031 (≈ 0.0382 µM) | 2 - 8 | 1 to 2 (≈ 1.23 to 2.46 µM) | 0.062 (≈ 0.0764 µM) | 1 | 0.125 to 0.5 (≈ 0.154 to 0.616 µM) | 0.5 to 1 (≈ 0.616 to 1.23 µM) | 2 - 4 | 8 (≈ 9.85 µM) | 4 (≈ 4.93 µM) | Ratio (Moraxella catarrhalis [28]): 4; MIC (Streptococcus pyogenes [9]): 0.5 µg/mL (≈ 0.616 µM); MIC (Moraxella catarrhalis [29]): 0.125 µg/mL (≈ 0.154 µM); MBC (Moraxella catarrhalis [30]): 0.5 µg/mL (≈ 0.616 µM); MBC (Streptococcus pyogenes [11]): 1 µg/mL (≈ 1.23 µM); Ratio (Streptococcus pneumoniae [17]): 1 - 2; Ratio (Moraxella catarrhalis [20]): 1; MIC (Moraxella catarrhalis [25]): 0.25 µg/mL (≈ 0.308 µM); MBC (Moraxella catarrhalis [27]): 0.25 µg/mL (≈ 0.308 µM)
